In patent publication US6432985B1, “Neuroprotective substituted piperidine compounds with activity as NMDA NR2B subtype selective antagonists” (Hoffmann-La Roche Inc., priority 2000, dated 2002) one finds IC50 and inhibition data, which are given here for 4 compounds.

Data set [1] deals with T1, recombinant human ERG potassium channels (Homo sapiens, UniProt Q12809).
T1 construct: expressed in transfected cells
Put plainly: Inhibition of the hERG K+ channel (whole-cell patch-clamp, CHO cells). Conditions: recombinant human ERG channels expressed in CHO cells; concentrations higher than 10 μM not tested; read-out: Inhibition of hERG K+ current IC50. In kind it is cell-based. The source says: (§1) Methods for Studying the Inhibition of the hERG K^+ Channel
(§2) CHO cells were stably transfected by a pcDNA3-hERG expression vector containing a SV40-neo cassette for selection. Cells were thinly plated into 35 mm dishes and used for the electrophysiological experiment ½-3 d later.
(§3) During the experiment the cells were continuously superfused with an extracellular saline containing (in mM): NaCl 150, KCl 10, MgCl2 1, CaCl2 3, HEPES 10 (pH=7.3 by addition of NaOH). A 10-mM stock solution of the test compound was made from pure DMSO. Test solution were made by at least 1000-fold dilution of the stock solution into the extracellular saline. The glass micropipettes for whole-cell patch-clamp recording were filled with a containing (in mM): KCl 110, BAPTA 10, HEPES 10, MgCl2 4.5, Na2ATP 4, Na2-phosphocreatine 20, creatine kinase 200 μg/ml (pH=7.3 by addition of KOH).
(§4) The whole-cell configuration of the patch-clamp technique was used for the experiments. Cells were clamped to −80 mV holding potential and repetitively (0.1 Hz) stimulated by a voltage pulse pattern consisting of a 1-s conditioning depolarisation to 20 mV immediately followed by a hyperpolarisation of 50 ms duration to −120 mV. The membrane current was recorded for at least 3 min (18 stimuli) before compound application (control), and then for another two 3-min intervals in presence of two different concentrations of the compound. The current amplitudes (Itest) at the end of each compound application interval were divided by the mean current amplitude (Icontrol) during the initial control period to calculate the percentage effect of the compound:
(§5) effect (%)=(1-Itest/Icontrol)·100.
(§6) Compound concentrations were chosen in decade steps (usually 1 and 10 μM) around the expected 50% inhibitory concentration (IC50). If after the first experiment the IC50 turned out to lie outside the range between the two chosen concentrations the concentrations were changed to bracket the IC50 in the following experiments. The compound was tested on at least three cells. Its IC50 was then estimated from the population of all percent-effect values by non-linear regression using the function […]). Concentrations higher than 10 μM were not tested.
Background: The hERG channel carries a current that helps repolarise heart muscle cells.

Data set [2] has as its target T2, hERG K+ channel (Homo sapiens, UniProt Q12809).
T2 construct: expressed in transfected cells
The description is as above. In kind it is cell-based. As to conditions: CHO cells stably transfected with hERG (pcDNA3-hERG), pH 7.3; average effect at 10 μM; recombinant human ERG channels in CHO cells; read-out: Inhibition of hERG K+ current, effect (%) at 10 μM.
Source text: as §1, §2, §3, §4, §5, §6

Data set [3] concerns the target α1-adrenergic receptors. Put plainly: [3H]-Prazosin binding. Conditions: rat brain membranes; 0.2 nM 3H-Prazosine; indicates affinity for α1-adrenergic receptors; read-out: Inhibition of [3H]-Prazosin binding IC50. As to the method:
(§7) Male Füllinsdorf albino rats weighing between 150-200 g were used. Membranes were prepared by homogenization of the whole brain minus cerebellum and medulla oblongata with a Plytron (10,000 rpm, 30 seconds), in 25 volumes of a cold Tris-HCl 50 mM, EDTA 10 mM, pH 7.1 buffer. The homogenate was centrifuged at 48.000 g for 10 minutes at 4° C. The pellet was resuspended using the Polytron in the same volume of buffer and the homogenate was incubated at 37° C. for 10 minutes. After centrifugation the pellet was homogenized in the same buffer and frozen at −80° C. for at least 16 hours but not more than 10 days. For the binding assay the homogenate was thawed at 37° C., centrifuged and the pellet was washed three times as above in a Tris-HCl 5 mM, pH 7.4 cold buffer. The final pellet was resuspended in the same buffer and used at a final concentration of 200 mg of protein/ml.
3H-Prazosin binding experiments were performed using a Tris-HCl 50 mM, pH 7.4 buffer. For displacement experiments 0.2 nM of 3H-Prazosine were used and non specific binding was measured using […] of Chlorpromazine. The incubation time was 30 minutes at room temperature and the assay was stopped by filtration on Whatman GF/B glass fiber filters (Unifilter-96, Canberra Packard S.A., Zürich, Switzerland). The filters were washed 5 times with cold buffer. The radioactivity on the filter was counted on a Packard Top-count microplate scintillation counter after addition of […] of microscint 40 (Canberra Packard S.A., Zürich, Switzerland). The effects of compounds were measured using a minimum of 8 concentrations and repeated at least once. The pooled normalized values were analyzed using a non-linear regression calculation program which provide IC50 with their relative upper and lower 95% confidence limits (RS1, BBN, USA).

In data set [4] the target is T3, NMDA NR2B subunit containing receptors (Rattus norvegicus, UniProt P35439+Q00960).
T3 construct: Membranes were prepared by homogenization of the whole brain minus cerebellum and medulla oblongata; from tissue; host or cells: rat whole brain minus cerebellum and medulla oblongata, membrane preparation
T3 sequence (Q00960 27-1482, other chains not shown): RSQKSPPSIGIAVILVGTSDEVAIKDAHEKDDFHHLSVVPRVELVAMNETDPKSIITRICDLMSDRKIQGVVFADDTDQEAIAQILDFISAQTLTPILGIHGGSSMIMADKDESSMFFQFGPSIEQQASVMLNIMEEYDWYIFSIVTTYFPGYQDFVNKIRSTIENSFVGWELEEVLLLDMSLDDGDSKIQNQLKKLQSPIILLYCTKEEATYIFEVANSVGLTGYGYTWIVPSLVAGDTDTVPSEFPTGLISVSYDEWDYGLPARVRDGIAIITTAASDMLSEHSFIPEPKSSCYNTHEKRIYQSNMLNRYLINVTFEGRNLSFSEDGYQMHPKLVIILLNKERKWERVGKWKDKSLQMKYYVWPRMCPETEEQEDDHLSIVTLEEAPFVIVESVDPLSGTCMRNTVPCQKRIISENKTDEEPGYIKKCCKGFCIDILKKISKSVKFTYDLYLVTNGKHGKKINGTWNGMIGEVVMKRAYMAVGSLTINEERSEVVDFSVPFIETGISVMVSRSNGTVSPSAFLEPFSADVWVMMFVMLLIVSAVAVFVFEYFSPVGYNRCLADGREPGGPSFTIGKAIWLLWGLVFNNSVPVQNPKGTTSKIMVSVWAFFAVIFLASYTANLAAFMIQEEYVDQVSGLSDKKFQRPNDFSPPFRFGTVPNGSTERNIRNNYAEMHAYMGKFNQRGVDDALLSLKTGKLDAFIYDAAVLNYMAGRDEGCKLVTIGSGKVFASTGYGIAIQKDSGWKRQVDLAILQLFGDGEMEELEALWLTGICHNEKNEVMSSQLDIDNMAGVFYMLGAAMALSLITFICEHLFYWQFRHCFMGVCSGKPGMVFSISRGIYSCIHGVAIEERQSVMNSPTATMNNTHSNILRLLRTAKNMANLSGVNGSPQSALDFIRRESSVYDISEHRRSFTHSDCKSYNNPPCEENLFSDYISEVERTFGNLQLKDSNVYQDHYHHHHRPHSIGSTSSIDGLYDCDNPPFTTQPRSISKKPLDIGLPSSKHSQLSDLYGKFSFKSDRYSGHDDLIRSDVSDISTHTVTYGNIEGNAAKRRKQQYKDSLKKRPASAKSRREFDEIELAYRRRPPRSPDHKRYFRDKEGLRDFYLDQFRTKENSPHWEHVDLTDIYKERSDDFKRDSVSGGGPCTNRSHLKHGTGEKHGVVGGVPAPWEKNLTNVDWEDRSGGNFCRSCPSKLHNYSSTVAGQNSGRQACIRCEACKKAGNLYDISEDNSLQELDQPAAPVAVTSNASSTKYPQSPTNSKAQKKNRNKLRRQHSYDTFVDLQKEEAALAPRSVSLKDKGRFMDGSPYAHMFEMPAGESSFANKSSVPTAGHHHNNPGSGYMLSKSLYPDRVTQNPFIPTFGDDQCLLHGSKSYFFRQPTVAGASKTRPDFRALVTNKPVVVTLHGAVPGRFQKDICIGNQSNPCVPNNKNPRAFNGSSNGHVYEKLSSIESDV
The experiment in a line: [3H]-Ro 25-6981 binding. As to conditions: rat brain membranes; 5 nM 3H-Ro 25-6981; indicates affinity for NMDA NR2B subunit containing receptors; read-out: Inhibition of [3H]-Ro 25-6981 binding IC50. As to the method:
3H-Ro 25-6981 Binding(Ro 25-6981 is [R-(R*,S*)]-α-(4-Hydroxy-phenyl)-β-methyl-4-(phenyl-methyl)-1-piperidine propanol)
as §7, with “Polytron” for “Plytron”, “μg” for “mg”
[3H]-Ro 25-6981 binding experiments were performed using a Tris-HCl 50 mM, pH 7.4 buffer. For displacement experiments 5 nM of 3H-Ro 25-6981 were used and non specific binding was measured using 10 μM of tetrahydroisoquinoline and usually it accounts for 10% of the total. The incubation time was 2 hours at 4° C. and the assay was stopped by filtration on Whatman GF/B glass fiber filters (Unifilter-96, Packard, Zürich, Switzerland). The filters were washed 5 times with cold buffer. The radioactivity on the filter was counted on a Packard Top-count microplate scintillation counter after addition of […] of microscint 40 (Canberra Packard S.A., Zürich, Switzerland).
The effects of compounds were measured using a minimum of 8 concentrations and repeated at least once. The pooled normalized values were analyzed using a non-linear regression calculation program which provide IC50 with their relative upper and lower 95% confidence limits (RS1, BBN, USA).

The IC50 is the concentration that gives 50% inhibition. In general, inhibition refers to the change of the read-out against control, counted positive when it falls.

T2 sequence (Q12809 whole entry): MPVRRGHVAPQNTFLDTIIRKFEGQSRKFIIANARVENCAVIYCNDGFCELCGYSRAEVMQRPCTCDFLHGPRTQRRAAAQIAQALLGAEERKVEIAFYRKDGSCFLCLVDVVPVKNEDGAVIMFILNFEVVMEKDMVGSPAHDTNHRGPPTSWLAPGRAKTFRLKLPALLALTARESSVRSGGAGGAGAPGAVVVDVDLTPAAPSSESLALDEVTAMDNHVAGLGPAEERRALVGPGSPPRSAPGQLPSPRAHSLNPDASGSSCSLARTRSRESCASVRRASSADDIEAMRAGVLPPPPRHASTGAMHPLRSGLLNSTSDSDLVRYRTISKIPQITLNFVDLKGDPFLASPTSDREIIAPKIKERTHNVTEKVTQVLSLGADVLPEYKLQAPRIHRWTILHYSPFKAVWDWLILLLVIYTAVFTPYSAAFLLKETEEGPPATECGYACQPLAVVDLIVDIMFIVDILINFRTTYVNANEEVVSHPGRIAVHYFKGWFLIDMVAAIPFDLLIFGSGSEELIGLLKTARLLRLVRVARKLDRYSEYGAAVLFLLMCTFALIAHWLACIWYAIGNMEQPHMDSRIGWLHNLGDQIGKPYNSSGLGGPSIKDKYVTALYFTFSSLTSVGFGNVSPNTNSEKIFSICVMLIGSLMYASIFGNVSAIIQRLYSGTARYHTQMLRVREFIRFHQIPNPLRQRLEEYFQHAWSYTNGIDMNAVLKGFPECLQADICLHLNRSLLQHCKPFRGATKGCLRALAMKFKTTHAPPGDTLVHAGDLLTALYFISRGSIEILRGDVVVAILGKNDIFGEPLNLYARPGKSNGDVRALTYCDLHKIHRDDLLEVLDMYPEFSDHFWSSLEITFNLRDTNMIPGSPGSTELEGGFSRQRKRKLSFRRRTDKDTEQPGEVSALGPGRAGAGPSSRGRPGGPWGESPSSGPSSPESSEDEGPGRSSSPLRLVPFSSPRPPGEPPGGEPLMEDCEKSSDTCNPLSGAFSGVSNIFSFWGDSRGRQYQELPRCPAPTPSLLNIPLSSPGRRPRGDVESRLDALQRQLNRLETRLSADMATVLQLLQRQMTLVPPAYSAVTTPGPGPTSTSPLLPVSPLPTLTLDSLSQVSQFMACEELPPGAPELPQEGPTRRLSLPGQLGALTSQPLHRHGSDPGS
T1 sequence (Q12809 whole entry): as above

As for `Oc1ccc(OCCN2CC[C@](O)(Cc3ccccc3)[C@H](O)C2)cc1` [I-1 (R,R), (3R,4R)-4-benzyl-1-[2-(4-hydroxy-phenoxy)-ethyl]-piperidine-3,4-diol], the IC50 in data set [1] was greater than 10 µM; in data set [3], 25 µM; in data set [4], 38 nM. In addition, the inhibition at 3 min, 10 µM in data set [2] is 44%.
The like results for `Oc1ccc(OCCN2CC[C@@](O)(Cc3ccccc3)[C@@H](O)C2)cc1` [I-2 (S,S), (3S,4S)-4-benzyl-1-[2-(4-hydroxy-phenoxy)-ethyl]-piperidine-3,4-diol] were, in that order, greater than 10 µM, 30 µM, 39 nM and 40%.
Regarding `Cc1ccc(CC2(O)CCN(CCOc3ccc(O)cc3)CC2)cc1` [EP 824098, 1-[2-(4-hydroxy-phenoxy)-ethyl]-4-(4-methyl-benzyl)-piperidin-4-ol, reference compound], the IC50 was 0.69 µM in data set [1], 3.5 µM in data set [3] and 10 nM in data set [4].
Regarding `Oc1ccc(OCCN2CC[C@](O)(Cc3ccccc3)[C@H](O)C2)cc1` (racemic) [I (racemate), (3R,4R) and (3S,4S)-4-benzyl-1-[2-(4-hydroxy-phenoxy)-ethyl]-piperidine-3,4-diol], the results for the IC50 in data set [1], in data set [3] and in data set [4] were greater than 10 µM, 27 µM and 45 nM, respectively. Moreover, the inhibition at 3 min, 10 µM in data set [2] turned out to be 45%.
